Results on one molecule are retold here after patent publication US20090062375A1, “METHODS AND COMPOSITIONS FOR THE TREATMENT OF VIRAL DISEASES” (priority 2005, published 2009).

In test [1] the test system is MMP-9 secretion by DV-infected iDC. Kind of test: Gelatin zymography of gelatinase (MMP-9) secretion by DV-infected iDC. Type of test: cell-based, human. The conditions noted are these: 10 μM SB203580 pretreatment, DV exposure 16 hr, zymography (FIG. 5C). On the procedure: FIG. 5. Immature DC (A-C) or HUVEC (D-F) were infected or not with DV and cells were collected 30 min post infection. Cells lysate were separated on 12.5% SDS-PAGE under reducing conditions. Proteins were electrophoretically transferred onto nitrocellulose membrane. The membrane was probed with (A and E) antibodies to total and to specific phosphorylated forms of ERK1/ERK2 antibodies to total and (B, D) to specific phosphorylated forms of p38 kinase. Horseradish peroxidase-conjugated goat anti-rabbit IgG was used as secondary antibody. Immature DC (C) or HUVEC (F) were pretreated or not with 10 μM SB 203580 prior to exposure with DV for 16 hr at 37° C. Supernatants were collected, lyophilized and assayed by zymography. Data are representative of 3 independent experiments.
Immature dendritic cells 5×10^5 cells/well were exposed to DV2-16681 for 2 hr, at MOI of 1 pfu/cell, in serum free RPMI 1640. Five extensive washes were done to eliminate free virus. […] Supernatants of DV infected iDC were collected and assessed for their viral activity. […]
DV infected iDC (5×10^5 cells) were cultured and collected in several time periods. Gelatinase secretion of cell supernatants was determined by sodium dodecyl sulfate-polyacrylamide gel electrophoresis (SDS-PAGE) zymography by using a gelatin substrate, as previously described (Missé´et al., 2001). […]

The test system of the next test is HUVEC monolayers. Nature of the test: HUVEC monolayer permeability assay (FITC-dextran, Transwell). Type of test: cell-based, human. As to conditions: concentration not stated. On the procedure: FIG. 6. Supernatant of DEN-V2 infected-iDC increase endothelial cell permeability in a MMP dependent fashion. Eighty percent confluent HUVEC were prepared on 24-well transwell polyethylene. (A) Either cell culture supernatants of uninfected iDC, DV-infected iDC, or recombinant TNF-α (20 ng/ml) were pre-treated or not with 20 nM SB-3CT for 24 hours before HUVEC exposure for 12 hours, HUVEC monolayer permeability was measured by using the FITC-Dextran detected with spectrofluorometer at an excitation wavelength of 485 nm and emission at 530 nm. […] Data are representative of 3 or 4 independent experiments.
FIG. 7. Supernatant of DEN-V2 infected-HUVEC increase endothelial cell permeability in a MMP-dependent fashion. IL-8 or TNF-α were used as controls. The induced permeability was inhibited as in experiment of FIG. 6 by SB-3CT.
Immature dendritic cells were cultured for 24 hr in serum-free RPMI 1640 conditioned medium. And then infected with DV, cells and supernatant were collected at different periods. […]
Permeability of HUVEC monolayers cultured on Transwell filters was assessed using FITC-labelled dextrans. […] The cells were removed and the absorbance of the FITC-dextran in the chamber was measured by spectrofluorometer (GENios-TECAN, Trappes, France) at an excitation wavelength of 485 nm and emission of 530 nm.

The structures appear in SMILES notation.

Turning to `C[S+]([O-])c1ccc(-c2nc(-c3ccc(F)cc3)c(-c3ccncc3)[nH]2)cc1` (centres unmarked) [SB203580, 4-(4-Fluorophenyl)-2-(4-methylsulfinylphenyl)-5-(4-pyridyl)1H-imidazole], in test [1], the “increase in MMP-9 secretion by DV-infected iDC” value is on record as “totally abolished”. Moreover, the “permeability of HUVEC increased by dengue virus-infected iDC supernatants (summary statement)” value in the test on HUVEC monolayers was “inhibited”.
